# How the values were obtained:
# [1] = tested on: Aβ formation in H4 APP751 SWE clone 8.20 cells (H4 neuroglioma cell line stably expressing the Swedish mutant of APP751); test: Inhibition of Aβ formation in cultured cells; assay type: cell-based; conditions: for IC50: H4 APP751 SWE clone 8.20 cells, 19 hours incubation, Aβ40 or Aβ42 not specified
# Method: Compounds were assayed for Aβ40 or Aβ42 inhibition in cells using H4 APP751 SWE clone 8.20, developed at Bristol-Myers Squibb, an H4 neuroglioma cell line stably expressing the Swedish mutant of APP751. Cells were maintained in log phase through twice weekly passage at a 1:20 dilution. For IC50 determinations, 30 μL cells (1.5×10^4 cells/well) in DMEM media containing 0.0125% BSA (Sigma A8412) were plated directly into 384-well compound plates (Costar 3709) containing 0.1 μL serially diluted compound in DMSO. Following incubation for 19 hours in 5% CO2 at 37° C., plates were briefly centrifuged (1000 rpm, 5 min). A 10 μL aliquot from each well was transferred to a second assay plate (Costar 3709) for Aβ40 measurements. Antibody cocktails were freshly prepared by dilution into 40 mM Tris-HCl (pH 7.4) with 0.2% BSA and added to assay plates. For Aβ42 measurements, antibodies specific for the Aβ42 neoepitope (565, developed at Bristol-Myers Squibb; conjugated to the Wallac reagent (Perkin Elmer)) and the N-terminal sequence of Aβ peptide (26D6, developed at SIBIA/Bristol-Myers Squibb; conjugated to APC (Perkin Elmer)) were mixed and 20 […] of the mixture was added to each well of the incubated cell plate yielding a final concentration of 0.8 ng/well 565 and 75 ng/well 26D6. For the Aβ40 measurements, antibodies specific for the Aβ40 neoepitope (TSD, developed at Bristol-Myers Squibb; conjugated to the Wallac reagent (Perkin Elmer)) and 26D6 as described above were mixed and 20 μL of the mixture was added to the 10 μL aliquots which had been removed previously from the cell plate yielding a final concentration of 1.6 ng/well TSD and 17.5 ng/well 26D6. Assay plates containing antibodies were sealed with aluminum foil and incubated overnight at 4° C. Signal was determined using a Viewlux counter (Perkin Elmer) and IC50 values determined using curve fitting in CurveMaster (Excel Fit based).
# brain Aβ40 = test: Acute rat study, brain Abeta40 assay (252-TSD ELISA); assay type: in vivo; conditions: female Sprague-Dawley rats, single dose 10 mg/kg, oral gavage
# Method: (§1) Aβ species from animals were measured using sandwich ELISA assays. A brief discussion of these assays is included here since the details of the epitopes for the individual antibodies determines the Aβ species that are detected. Mouse and rat Aβ share a common Aβ sequence that differs from human Aβ. As a result of these sequence differences, antibodies that recognize the N-terminal region of human Aβ, such as 26D6, bind weakly to rodent Aβ. Likewise, antibodies that bind tightly to rodent Aβ, such as 252, bind weakly to human Aβ. Two assays were developed for measuring rodent Aβ40: 252-TSD and 4G8-TSD. The TSD-4G8 assay can measure not only Aβ40, but other BACE-γ-secretase cleavage products (Aβ11-40) and α-secretase-γ-secretase cleavage products (P3).
# (§2) Dosing solutions were made once at the start of the study. Heating at 56° C. and sonication were used to solubilize compound in the dosing solution. All procedures were done in concordance with ACUC guidelines. Terminal blood samples were obtained by cardiac puncture after CO2 euthanasia and collected in EDTA tubes. Plasma was obtained after centrifugation. […]
# Rat brain (half a hemisphere) was homogenized using a polytron at 4 mL/g in PBS, pH 7.8, 2% CHAPS, complete protease inhibitors (Roche). […] The bound 252-HRP antibody was detected using Pierce Supersignal Pico Chemiluminescent substrate for 10 minutes and quantified a Packard TopCount. […]
# plasma Aβ40 = test: Acute rat study, plasma Abeta40 assay (4G8-TSD ELISA); assay type: in vivo; conditions: female Sprague-Dawley rats, single dose 10 mg/kg, oral gavage
# Method: as §1, §2
# Plates were coated with TSD antibody and washed as for the brain Aβ40 assay. […] Samples were detected using 4G8-biotin (Signet) diluted 1:8000 in PBS, 0.05% Tween, 0.1% BSA for 1 hour. […] Detection and quantification were as for brain Aβ40 assays. […]
SMILES,IC50 [1] [pM],further results
"NC(=O)[C@@H](CC1CC1)N(Cc1ccc(Br)cc1)S(=O)(=O)c1ccc(Cl)s1 [Example 1, (R)-2-(N-(4-bromobenzyl)-5-chlorothiophene-2-sulfonamido)-3-cyclopropylpropanamide]",1010,–
"NC(=O)[C@@H](CC1CC1)N(Cc1ccc(Br)cc1F)S(=O)(=O)c1ccc(Cl)s1 [Example 2, (R)-2-(N-(4-bromo-2-fluorobenzyl)-5-chlorothiophene-2-sulfonamido)-3-cyclopropylpropanamide]",520,–
"NC(=O)[C@@H](CC1CC1)N(Cc1ccc(Br)c(F)c1)S(=O)(=O)c1ccc(Cl)s1 [Example 3, (R)-2-(N-(4-bromo-3-fluorobenzyl)-5-chlorothiophene-2-sulfonamido)-3-cyclopropylpropanamide]",760,–
"NC(=O)[C@@H](CC1CC1)N(Cc1cc(F)c(Br)cc1F)S(=O)(=O)c1ccc(Cl)s1 [Example 4, (R)-2-(N-(4-bromo-2,5-difluorobenzyl)-5-chlorothiophene-2-sulfonamido)-3-cyclopropylpropanamide]",820,–
"NC(=O)[C@@H](CC1CC1)N(Cc1ccc(-c2ncon2)cc1)S(=O)(=O)c1ccc(Cl)s1 [Example 5, (R)-2-(N-(4-(1,2,4-oxadiazol-3-yl)benzyl)-5-chlorothiophene-2-sulfonamido)-3-cyclopropylpropanamide]",510,–
"NC(=O)[C@@H](CC1CC1)N(Cc1cc(F)c(Cl)cc1F)S(=O)(=O)c1ccc(Cl)s1 [Example 6, (R)-2-(5-chloro-N-(4-chloro-2,5-difluorobenzyl)thiaphene-2-sulfonamido)-3-cyclopropylpropanamide]",1490,–
"NC(=O)[C@@H](CCC(F)(F)F)N(Cc1ccc(-c2ncon2)cc1F)S(=O)(=O)c1ccc(Cl)s1 [Example 7, (R)-2-(5-chloro-N-(2-fluoro-4-(1,2,4-oxadiazol-3-yl)benzyl)thiophene-2-sulfonamido)-5,5,5-trifluoropentanamide]",290,"Aβ40 versus Aβ42 inhibition in cultured cells ([1]; cultured cells): similarly inhibited; brain Aβ40, level as % of vehicle control (brain Aβ40): 41 % of vehicle control; plasma Aβ40, level as % of vehicle control (plasma Aβ40): 47 % of vehicle control"
"NC(=O)[C@@H](CCC(F)(F)F)N(Cc1ccc(-c2ncco2)cc1F)S(=O)(=O)c1ccc(Cl)s1 [Example 9, (R)-2-(5-chloro-N-(2-fluoro-4-(oxazol-2-yl)benzyl)thiophene-2-sulfonamido)-5,5,5-trifluoropentanamide]",610,–
"NC(=O)[C@@H](CCC(F)(F)F)N(Cc1ccc(Br)cc1)S(=O)(=O)c1ccc(Cl)s1 [Example 10, (R)-2-(N-(4-bromobenzyl)-5-chlorothiophene-2-sulfonamido)-5,5,5-trifluoropentanamnide]",2540,–
"NC(=O)[C@@H](CCC(F)(F)F)N(Cc1ccc(Br)cc1F)S(=O)(=O)c1ccc(Cl)s1 [Example 11, (R)-2-(N-(4-bromo-2-fluorobenzyl)-5-chlorothiophene-2-sulfonamido)-5,5,5-trifluoropentanamide]",1060,–
"NC(=O)[C@@H](CCC(F)(F)F)N(Cc1ccc(Br)c(F)c1)S(=O)(=O)c1ccc(Cl)s1 [Example 12, (R)-2-(N-(4-bromo-3-fluorobenzyl)-5-chlorothiophene-2-sulfonamido)-5,5,5-trifluoropentanamide]",2980,–

# Reference: patent US20110071199A1, “Thiophenyl Sulfonamides for the Treatment of Alzheimer's Disease” (Bristol-Myers Squibb Company, priority 2009, published 2011)
